The results in this text go back to US9556117B2, “Indole carboxamide derivatives as P2X7 receptor antagonists” (ACTELION PHARMACEUTICALS LTD, priority 2012, dated 2017).

This assay deals with human recombinant P2X7 receptor (Homo sapiens (Human), UniProt Q99572). The assay can be described thus: YO-PRO1 assay, P2X7 receptor antagonistic activity.
human recombinant P2X7 receptor, sequence (Q99572 whole entry): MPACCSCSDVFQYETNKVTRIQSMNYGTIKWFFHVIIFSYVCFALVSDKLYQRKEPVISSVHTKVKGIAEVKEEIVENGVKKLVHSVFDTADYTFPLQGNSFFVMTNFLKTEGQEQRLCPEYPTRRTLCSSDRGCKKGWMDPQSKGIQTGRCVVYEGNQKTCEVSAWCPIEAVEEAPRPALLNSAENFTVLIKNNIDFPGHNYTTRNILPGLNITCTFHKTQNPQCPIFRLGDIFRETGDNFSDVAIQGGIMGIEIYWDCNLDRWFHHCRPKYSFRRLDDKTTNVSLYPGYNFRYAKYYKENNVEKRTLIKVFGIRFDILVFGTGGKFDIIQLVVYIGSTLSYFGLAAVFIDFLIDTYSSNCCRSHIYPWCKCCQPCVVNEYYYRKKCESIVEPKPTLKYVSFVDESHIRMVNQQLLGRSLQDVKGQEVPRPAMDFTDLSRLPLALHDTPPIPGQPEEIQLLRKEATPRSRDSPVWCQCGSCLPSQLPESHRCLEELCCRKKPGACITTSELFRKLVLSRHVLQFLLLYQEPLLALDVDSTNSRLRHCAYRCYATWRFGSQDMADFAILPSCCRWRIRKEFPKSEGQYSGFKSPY

With `CC(O)c1cc(C(=O)NCC2(O)CCC(F)(F)CC2)c(Cl)c2cc[nH]c12` (racemic) [Example 67, rac-4-Chloro-7-(1-hydroxy-ethyl)-1H-indole-5-carboxylic acid (4,4-difluoro-1-hydroxy-cyclohexylmethyl)-amide], the IC50 (in general, the concentration needed to halve the response being measured) was found to be 4.7 nM.
The value for `O=C(NC(CO)C1CCCCCC1)c1ccc2[nH]ccc2c1Cl` (racemic) [Example 10, rac-4-Chloro-1H-indole-5-carboxylic acid (1-cycloheptyl-2-hydroxy-ethyl)-amide] was 57 nM.
